Experimental findings from PubChem BioAssay AID1996 are described below.

Values after ≈ are worked out from the molar mass of the structure shown.

For the series the following is noted: buffer; pH 7.4; 200.0 µM.
Consider `CCOc1ccc2[nH]c3c(NCCN(C)C)ncnc3c2c1`, for which the kinetic solubility is over 44.9 µg/mL.
The same measure for `CCC(=O)Nc1nc(-c2cc([N+](=O)[O-])cs2)cs1`: 1 µg/mL (≈ 3.53 µM).
As for `COC(=O)c1cc(CNC(=O)Cc2ccsc2)ccc1OC`, the solubility (kinetic) amounted to 47.5 µg/mL (≈ 149 µM).
To `O=C(COC(=O)/C=C/c1cccc(F)c1)Nc1ccc(Cl)cn1` belongs 5 µg/mL (≈ 14.9 µM); to `CCCOc1ccccc1NC(=O)c1ccc([N+](=O)[O-])cc1`, 4.1 µg/mL (≈ 13.7 µM); to `CCOc1ccc(C(=O)OCC(=O)NC2CCCC2)cc1OCC`, 17.7 µg/mL (≈ 52.8 µM).
The same measure for `C=CCNC(=O)c1cccc(NS(=O)(=O)c2ccc(Cl)cc2)c1`: 49.9 µg/mL (≈ 142 µM); for `O=C(NC1CCCCC1)C1CCN(c2ncccn2)CC1`: over 43.3 µg/mL.
For the compound `Cc1ccc(NC(=O)COc2ccccc2)cc1Cl`, the solubility (kinetic) worked out at 2.4 µg/mL (≈ 8.7 µM).
The same measure for `COC(=O)[C@@H]1CCCN1Cc1nc(Cc2ccc(OC)c(OC)c2)no1`: over 54.2 µg/mL.
To `Cc1ccc(N2C(=O)C(Cl)=C(N3CCOCC3)C2=O)c(C)c1` belongs 36.3 µg/mL (≈ 113 µM).
To `CC1CCCN(C(=O)C2CC(=O)N(c3ccc(Cl)cc3)C2)C1` (configuration not stated) belongs over 48.1 µg/mL; to `COc1ccc(N2CCN(c3cc(C)c4ccccc4n3)CC2)cc1`, under 0.2 µg/mL; to `COc1ccccc1NC(=O)Nc1c(C)nn(C)c1C`, over 41.1 µg/mL.
Compound `Cc1cccc[n+]1CC(=O)Nc1ccccc1.[Cl-]` came in with a solubility (kinetic) of 26.6 µg/mL.
The same measure for `CCOCCCNC(=O)C1c2ccccc2Oc2ccccc21`: 13.6 µg/mL (≈ 43.7 µM); for `Cn1cccc1C(=O)OCC(=O)NCCc1ccccc1`: over 42.9 µg/mL.
The same measure for `CC(C)NC(=O)NNC(=O)c1nn(-c2ccc(F)cc2)ccc1=O`: over 50 µg/mL; for `COc1ccc(C)cc1NC(=O)COC(=O)C1COc2ccccc2O1` (configuration not stated): over 53.6 µg/mL; for `CC1CCN(Cc2nc(Cl)c3c4c(sc3n2)CCC4)CC1`: 27.4 µg/mL (≈ 85.1 µM).
To `COc1ccc(OCCn2cnc3ccccc32)cc1` belongs over 40.2 µg/mL.
The compound `CCOc1ncccc1C(=O)NCCc1ccc(Cl)cc1` had a solubility (kinetic) of 33.7 µg/mL (≈ 111 µM).
The same measure for `CCOc1ccc(N2CC(C(=O)Nc3ccncc3)CC2=O)cc1` (configuration not stated): over 48.8 µg/mL; for `COc1ccc(CN2CCC(C(=O)c3ccc(F)cc3)CC2)cc1`: over 49.1 µg/mL; for `COc1cc2c(cc1OC)C(C)N(C(=O)c1ccc(C)o1)CC2` (configuration not stated): over 47.3 µg/mL.
To `COc1ccc(OCC(=O)NCc2ccc(Cl)cc2)cc1` belongs 3.3 µg/mL (≈ 10.8 µM); to `CC(=O)N1CCN(c2nnc(-c3ccccc3)c3ccccc23)CC1`, over 49.9 µg/mL; to `CCN1/C(=C2\OC(=S)N(C)C2=O)C=Cc2ccccc21`, 0.3 µg/mL (≈ 1.05 µM).
The same measure for `CC(Oc1ccc2c(-c3ccccc3)cc(=O)oc2c1)C(=O)NC(Cc1c[nH]c2ccccc12)C(=O)O` (configuration not stated): over 74.5 µg/mL.
The compound `CC(=O)Nc1ccc(N/C=C2/CCCC2=O)cc1` registered a solubility (kinetic) of over 36.6 µg/mL.
To `Cc1ccc(C)c(OCCCNCc2ccccc2)c1.O=C(O)C(=O)O` belongs over 53.9 µg/mL; to `S=C(NCc1ccco1)Nc1ccc(Cl)cn1`, 4.1 µg/mL (≈ 15.3 µM); to `CC1(C)CCN2CCC(C)(C)c3c(O)ccc1c32.CS(=O)(=O)O`, 19.6 µg/mL.
To `Cc1noc(C)c1S(=O)(=O)N1CCC(C(=O)O)CC1` belongs over 43.2 µg/mL; to `C=Cc1ccc(Cn2c(C(=O)O)c(C=O)c3ccccc32)cc1`, over 45.8 µg/mL.
The same measure for `Cc1cccc(-c2nc(N)nc(N)n2)c1`: 28 µg/mL (≈ 139 µM).
`O=[N+]([O-])c1ccccc1OCCN1CCOCC1` showed a solubility (kinetic) of over 37.8 µg/mL.
For the compound `CCCCNC(=O)c1ccc(CS(=O)(=O)Cc2ccccc2F)o1`, the kinetic solubility is over 53 µg/mL.
To `O=C(/C=C/c1ccco1)NC(=S)Nc1ccccc1` belongs 17.2 µg/mL (≈ 63.2 µM); to `Cc1nc(NC(=O)C2CC2)sc1C(=O)Nc1cccc(Cl)c1`, 0.8 µg/mL (≈ 2.38 µM).
The same measure for `O=C(Nc1nccs1)c1c(O)c2c([nH]c1=O)CCCC2`: 0.9 µg/mL (≈ 3.09 µM); for `O=C1/C(=C/c2cccnc2)CC/C1=C\c1cccnc1`: 17.1 µg/mL (≈ 65.2 µM).
In turn, `COc1ccc(NS(=O)(=O)c2cccc(C(=O)N3CCN(C(=O)c4ccco4)CC3)c2)cc1` came in with a solubility (kinetic) of 68.1 µg/mL (≈ 145 µM).
The same measure for `CCOC(=O)C1=C(COC(=O)c2cccnc2SC)NC(=O)NC1C` (configuration not stated): over 54.8 µg/mL; for `CN(C)c1ccc(NC(=O)Nc2cccc3ccccc23)cc1`: 2.6 µg/mL (≈ 8.51 µM).
The same measure for `Brc1ccc(C2NCCS2)cc1` (configuration not stated): 29.3 µg/mL (≈ 120 µM); for `Cc1cccc(OCC(=O)NCC(C)(C)N2CCOCC2)c1`: over 46 µg/mL; for `Cc1cc(NC(=O)CSc2nnc(-c3ccccc3F)n2N)no1`: over 52.3 µg/mL.
The same measure for `O=C(NCc1ccco1)c1cnn2cccnc12`: over 36.3 µg/mL.
In turn, `Cc1ccc(OCC(=O)Nc2ccncc2)c(C)c1` displayed a solubility (kinetic) of 32.1 µg/mL (≈ 125 µM).
The same measure for `COc1ccc(-c2cc(C(F)(F)F)c(C#N)c(SCC(=O)O)n2)cc1`: 53.6 µg/mL (≈ 146 µM); for `COc1cccc(CC2(CO)CCN(S(=O)(=O)N(C)C)CC2)c1`: over 51.4 µg/mL.

As usually defined, the solubility (kinetic) is solubility judged after dilution from a stock solution rather than from solid.
